{"source": "patent US9364480B2", "about": "“Pharmaceutical composition for preventing or treating cancer, containing enoblock as active ingredient” (GWANGJU INSTITUTE OF SCIENCE AND TECHNOLOGY, priority 2012, dated 2016)", "tested_on": "zebrafish larvae", "assay": "Measurement of glucose uptake in zebrafish (2-NBDG)", "type": "in vivo", "design": "2-NBDG signal in lysed larvae (fluorescent plate reader): dose or concentration left out as unconfirmed", "method": "FIG. 12. […] (a) Schematic of our approach to measure the effect of ENOblock treatment on […] in zebrafish.\nAt 72 hpf, larvae were placed into a 96-well plate (6 eggs/well in 200 μL E3 water supplemented with 0.2 mM 2-phenylthiourea; Sigma). Drug of interest was added for […]. The solution was then replaced with E3 water supplemented with 600 μM 2-NBDG and incubated for 3 h. The larva were washed with E3 water and anesthetized with 0.02% tricaine-supplemented E3 water. One larva was then placed on a chamber slide, containing 3% methylcellulose in E3 water, for fluorescent microscopy (Leica DM2500 microscope equipped with a DFC425 C digital camera). Images were captured at 50× magnification. The remaining 5 larvae where lysed with 120 μL of CelLytic M solution (Sigma-Aldrich) and sonication (4° C., 10″/5″ pulse, 10 min). Lysed larvae were centrifuged at 10000 rpm for 10 min. 100 μL of the supernatant was transferred to a 96-well plate and fluorescence was measured with a fluorescent microplate reader (SpectraMAX Gemini XS, Molecular Devices; λex=466 nm […])."}
{"compound": "NCCOCCOCCNC(=O)Cc1ccc(Nc2nc(NCc3ccc(F)cc3)nc(NCC3CCCCC3)n2)cc1", "note": "[ENOblock]", "values": [{"measurement": "glucose uptake in larvae (2-NBDG fluorescence microscopy)", "setting": "10 μM, 4 h", "result": "increased glucose uptake in the zebrafish larvae"}, {"measurement": "2-NBDG fluorescence signal intensity in the eye", "setting": "72 hpf larvae, 10 μM, 4 h, vs 2-NBDG alone", "result": "induced significantly greater fluorescent tagged glucose uptake in the zebrafish eye"}, {"measurement": "2-NBDG signal in lysed larvae (fluorescent plate reader)", "setting": "72 hpf zebrafish", "result": "induced glucose uptake"}]}
